How the values were obtained:
human ALX receptor = target: T1, human ALX receptor (Homo sapiens, UniProt P25090); test: Intracellular calcium measurements (FLIPR), agonistic activity in HEK293-hALXR-Gα16 cells; format: cell-based; details: Fluo-4 calcium FLIPR, normalized to WKYMVm 10 nM
T1 construct: expressed in transfected cells; host or cells: HEK293 (HEK293-hALXR-Gα16)
T1 sequence (P25090 1-351): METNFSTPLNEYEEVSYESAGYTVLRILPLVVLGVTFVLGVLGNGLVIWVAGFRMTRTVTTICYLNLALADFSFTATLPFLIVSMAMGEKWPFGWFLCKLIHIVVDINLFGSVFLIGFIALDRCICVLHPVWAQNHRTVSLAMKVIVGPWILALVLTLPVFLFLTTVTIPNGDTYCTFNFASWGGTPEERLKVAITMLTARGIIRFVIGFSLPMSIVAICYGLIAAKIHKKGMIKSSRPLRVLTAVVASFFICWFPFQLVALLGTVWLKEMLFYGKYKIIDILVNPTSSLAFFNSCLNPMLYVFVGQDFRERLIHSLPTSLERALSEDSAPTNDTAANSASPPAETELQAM
How it was run: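 HEK293 cells expressing hALXR and Gα16 were loaded with 1 μM Fluo-4 AM and 20 mM HEPES for 60 min at 37°C, then exposed to serially diluted compound. FLIPR fluorescence was read at ex 488/em 540 nm. Baseline-subtracted peak responses were normalized to 10 nM WKYMVm.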

human FPRL2 = target: T2, human FPRL2 (Homo sapiens, UniProt P25089); test: Intracellular calcium measurements (FLIPR), agonistic activity in HEK293-hFPRL2-Gα16 cells; format: cell-based; details: Fluo-4 calcium FLIPR, normalized to GLY14-Humanin 100 nM
T2 construct: expressed in transfected cells; host or cells: HEK293 (HEK293-hFPRL2-Gα16)
T2 sequence (P25089 1-353): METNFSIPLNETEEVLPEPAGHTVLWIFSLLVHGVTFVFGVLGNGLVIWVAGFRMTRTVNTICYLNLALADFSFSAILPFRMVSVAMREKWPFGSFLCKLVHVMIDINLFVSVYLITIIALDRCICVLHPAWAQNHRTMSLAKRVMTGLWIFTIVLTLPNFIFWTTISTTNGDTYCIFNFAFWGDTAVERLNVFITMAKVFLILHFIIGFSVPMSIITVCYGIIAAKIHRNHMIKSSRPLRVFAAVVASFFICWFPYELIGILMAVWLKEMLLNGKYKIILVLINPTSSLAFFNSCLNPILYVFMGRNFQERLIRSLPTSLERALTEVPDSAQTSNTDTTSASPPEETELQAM
How it was run: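 Peak values after baseline subtraction are expressed relative to 100 nM Gly14-Humanin; compounds diluted in assay buffer from 10 mM DMSO stocks.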

| EC50 (human ALX receptor) | EC50 (human FPRL2) | SMILES |
| --- | --- | --- |
| 1740 nM | 165 nM | O=C(NCCCCN1CCCC1)[C@H]1[C@H](C(=O)NCCC2=CCCCC2)[C@@H]2C=C[C@H]1C21CC1 (racemic) [Example 341, (5R*)—N^5-(2-(Cyclohexen-1-yl)ethyl)-(6R*)—N^6-(4-pyrrolidino-butyl)-(4S*,7R*)-[4,7-ethenylene-spiro[2.4]heptane]-5,6-dicarboxamide] |
| > 2390 nM | 885 nM | O=C(NCCCCN1CCCC1)[C@H]1[C@H](C(=O)NCCc2ccccn2)[C@@H]2C=C[C@H]1C21CC1 (racemic) [Example 343, (5R*)—N^5-(2-(Pyridin-2-yl)ethyl)-(6R*)—N^6-(4-pyrrolidino-butyl)-(4S*,7R*)-[4,7-ethenylene-spiro[2.4]heptane]-5,6-dicarboxamide] |
| > 25000 nM | 734 nM | O=C(NCCCCN1CCCC1)[C@H]1[C@H](C(=O)Nc2nc(C(F)(F)F)cs2)[C@@H]2C=C[C@H]1C21CC1 (racemic) [Example 345, (5R*)—N^5-(4-Trifluoromethyl-thiazol-2-yl)-(6R*)—N^6-(4-pyrrolidino-butyl)-(4S*,7R*)-[4,7-ethenylene-spiro[2.4]heptane]-5,6-dicarboxamide] |
| 1540 nM | 508 nM | O=C(NCCCCN1CCCC1)[C@H]1[C@H](C(=O)NCc2c(F)cc(F)cc2F)[C@@H]2C=C[C@H]1C21CC1 (racemic) [Example 346, (5R*)—N^5-(2,4,6-Trifluorophenyl-methyl)-(6R*)—N^6-(4-pyrrolidino-butyl)-(4S*,7R*)-[4,7-ethenylene-spiro[2.4]heptane]-5,6-dicarboxamide] |
| 1800 nM | 417 nM | Cc1ccc(CNC(=O)[C@H]2[C@H](C(=O)NCCCCN3CCCC3)[C@H]3C=C[C@@H]2C32CC2)c(C)c1 (racemic) [Example 347, (5R*)—N^5-(2,4-Dimethylphenyl-methyl)-(6R*)—N^6-(4-pyrrolidino-butyl)-(4S*,7R*)-[4,7-ethenylene-spiro[2.4]heptane]-5,6-dicarboxamide] |

The next lines start with the compound.

| SMILES | EC50 (human ALX receptor) | EC50 (human FPRL2) |
| --- | --- | --- |
| NCc1cccc(CNC(=O)[C@H]2[C@H](C(=O)NCc3ccc(Br)cc3)[C@@H]3C=C[C@H]2C32CC2)c1 (racemic) [Example 308, (5R*)—N^5-(4-Bromophenyl-methyl)-(6R*)—N^6-(3-(aminomethyl)phenyl-methyl)-(4S*,7R*)-[4,7-ethenylene-spiro[2.4]heptane]-5,6-dicarboxamide] | 59 nM | 493 nM |
| NCc1ccc(CNC(=O)[C@H]2[C@H](C(=O)NCc3ccc(Br)cc3)[C@@H]3C=C[C@H]2C32CC2)cc1 (racemic) [Example 309, (5R*)—N^5-(4-Bromophenyl-methyl)-(6R*)—N^6-(4-(aminomethyl)phenyl-methyl)-(4S*,7R*)-[4,7-ethenylene-spiro[2.4]heptane]-5,6-dicarboxamide] | 367 nM | 1340 nM |
| CC(C)(CN)CNC(=O)[C@H]1[C@H](C(=O)NCc2ccc(Br)cc2)[C@@H]2C=C[C@H]1C21CC1 (racemic) [Example 310, (5R*)—N^5-(4-Bromophenyl-methyl)-(6R*)—N^6-(2,2-dimethyl-3-amino-propyl)-(4S*,7R*)-[4,7-ethenylene-spiro[2.4]heptane]-5,6-dicarboxamide] | 26 nM | 466 nM |
| O=C(NCC1CCNCC1)[C@H]1[C@H](C(=O)NCc2ccc(Br)cc2)[C@@H]2C=C[C@H]1C21CC1 (racemic) [Example 311, (5R*)—N^5-(4-Bromophenyl-methyl)-(6R*)—N^6-(piperidin-4-yl-methyl)-(4S*,7R*)-[4,7-ethenylene-spiro[2.4]heptane]-5,6-dicarboxamide] | 54 nM | 1170 nM |
| CC(=O)c1csc(NC(=O)[C@H]2[C@H](C(=O)NCCCCN3CCCC3)[C@H]3C=C[C@@H]2C32CC2)n1 (racemic) [Example 344, (5R*)—N^5-(4-Acetyl-thiazol-2-yl)-(6R*)—N^6-(4-pyrrolidino-butyl)-(4S*,7R*)-[4,7-ethenylene-spiro[2.4]heptane]-5,6-dicarboxamide] | 7850 nM | 414 nM |

Reference: patent US8563714B2, “Bridged spiro [2.4] heptane derivatives as ALX receptor and/or FPRL2 agonists” (Actelion Pharmaceuticals Ltd., priority 2009, dated 2013)
